According to PubChem BioAssay AID1259407 (Chemical Carcinogenesis Research Information System (CCRIS), 2018):
Activity calls are given as the source filed them. How the calls were made is not given here.

System: CCRIS mutagenicity, Ames/micronucleus/aberration tests
Assay: CCRIS mutagenicity studies
[1] = Test System: AMES SALMONELLA TYPHIMURIUM, Strain/Indicator: TA98, Metabolic Activation: NONE, Method: PREINCUBATION

## CC(=O)O
Test System: AMES SALMONELLA TYPHIMURIUM, Strain/Indicator: TA97, Metabolic Activation: HAMSTER, LIVER, S-9, AROCLOR 1254 (10%), Method: PREINCUBATION
  mutagenic call: inactive; negative
Test System: AMES SALMONELLA TYPHIMURIUM, Strain/Indicator: TA97, Metabolic Activation: HAMSTER, LIVER, S-9, AROCLOR 1254 (30%), Method: PREINCUBATION
  mutagenic call: inactive; negative
Test System: AMES SALMONELLA TYPHIMURIUM, Strain/Indicator: TA97, Metabolic Activation: NONE, Method: PREINCUBATION
  mutagenic call: inactive; negative
Test System: AMES SALMONELLA TYPHIMURIUM, Strain/Indicator: TA97, Metabolic Activation: RAT, LIVER, S-9, AROCLOR 1254 (10%), Method: PREINCUBATION
  mutagenic call: inactive; negative
Test System: AMES SALMONELLA TYPHIMURIUM, Strain/Indicator: TA97, Metabolic Activation: RAT, LIVER, S-9, AROCLOR 1254 (30%), Method: PREINCUBATION
  mutagenic call: inactive; negative
Test System: AMES SALMONELLA TYPHIMURIUM, Strain/Indicator: TA97, Metabolic Activation: RAT, LIVER, S-9, AROCLOR 1254, Method: PREINCUBATION
  mutagenic call: inactive; negative
Test System: AMES SALMONELLA TYPHIMURIUM, Strain/Indicator: TA98, Metabolic Activation: HAMSTER, LIVER, S-9, AROCLOR 1254 (10%), Method: PREINCUBATION
  mutagenic call: inactive; negative
Test System: AMES SALMONELLA TYPHIMURIUM, Strain/Indicator: TA98, Metabolic Activation: HAMSTER, LIVER, S-9, AROCLOR 1254 (30%), Method: PREINCUBATION
  mutagenic call: inactive; negative
[1]
  mutagenic call: inactive; negative
Test System: AMES SALMONELLA TYPHIMURIUM, Strain/Indicator: TA98, Metabolic Activation: RAT, LIVER, S-9, AROCLOR 1254 (10%), Method: PREINCUBATION
  mutagenic call: inactive; negative
Test System: AMES SALMONELLA TYPHIMURIUM, Strain/Indicator: TA98, Metabolic Activation: RAT, LIVER, S-9, AROCLOR 1254 (30%), Method: PREINCUBATION
  mutagenic call: inactive; negative
Test System: AMES SALMONELLA TYPHIMURIUM, Strain/Indicator: TA100, Metabolic Activation: HAMSTER, LIVER, S-9, AROCLOR 1254 (10%), Method: PREINCUBATION
  mutagenic call: inactive; negative
Test System: AMES SALMONELLA TYPHIMURIUM, Strain/Indicator: TA100, Metabolic Activation: HAMSTER, LIVER, S-9, AROCLOR 1254 (30%), Method: PREINCUBATION
  mutagenic call: inactive; negative
Test System: AMES SALMONELLA TYPHIMURIUM, Strain/Indicator: TA100, Metabolic Activation: NONE, Method: PREINCUBATION
  mutagenic call: inactive; negative
Test System: AMES SALMONELLA TYPHIMURIUM, Strain/Indicator: TA100, Metabolic Activation: RAT, LIVER, S-9, AROCLOR 1254 (10%), Method: PREINCUBATION
  mutagenic call: inactive; negative
Test System: AMES SALMONELLA TYPHIMURIUM, Strain/Indicator: TA100, Metabolic Activation: RAT, LIVER, S-9, AROCLOR 1254 (30%), Method: PREINCUBATION
  mutagenic call: inactive; negative
Test System: AMES SALMONELLA TYPHIMURIUM, Strain/Indicator: TA102, Metabolic Activation: NONE, Method: PREINCUBATION
  mutagenic call: inactive; negative
Test System: AMES SALMONELLA TYPHIMURIUM, Strain/Indicator: TA102, Metabolic Activation: RAT, LIVER, S-9, AROCLOR 1254, Method: PREINCUBATION
  mutagenic call: inactive; negative
Test System: AMES SALMONELLA TYPHIMURIUM, Strain/Indicator: TA1535, Metabolic Activation: HAMSTER, LIVER, S-9, AROCLOR 1254 (10%), Method: PREINCUBATION
  mutagenic call: inactive; negative
Test System: AMES SALMONELLA TYPHIMURIUM, Strain/Indicator: TA1535, Metabolic Activation: HAMSTER, LIVER, S-9, AROCLOR 1254 (30%), Method: PREINCUBATION
  mutagenic call: inactive; negative
Test System: AMES SALMONELLA TYPHIMURIUM, Strain/Indicator: TA1535, Metabolic Activation: NONE, Method: PREINCUBATION
  mutagenic call: inactive; negative
Test System: AMES SALMONELLA TYPHIMURIUM, Strain/Indicator: TA1535, Metabolic Activation: RAT, LIVER, S-9, AROCLOR 1254 (10%), Method: PREINCUBATION
  mutagenic call: inactive; negative
Test System: AMES SALMONELLA TYPHIMURIUM, Strain/Indicator: TA1535, Metabolic Activation: RAT, LIVER, S-9, AROCLOR 1254 (30%), Method: PREINCUBATION
  mutagenic call: inactive; negative

## O[C@@H]1c2ccc3cc4ccccc4cc3c2[C@@H]2OC2[C@@H]1O (stereo not given in full)
Test System: CHINESE HAMSTER V-79, Strain/Indicator: V-79/8-AZAGUANINE, Metabolic Activation: NONE, Method: STANDARD PLATE
  mutagenic call: active; positive

## CC(=O)N(O)c1ccc([N+](=O)[O-])cc1
Test System: AMES SALMONELLA TYPHIMURIUM, Strain/Indicator: TA98(NR), Metabolic Activation: NONE, Method: STANDARD PLATE
  mutagenic call: inactive; negative
Test System: AMES SALMONELLA TYPHIMURIUM, Strain/Indicator: TA98(NR), Metabolic Activation: RAT, LIVER, S-9, AROCLOR 1254, Method: STANDARD PLATE
  mutagenic call: inactive; negative
Test System: AMES SALMONELLA TYPHIMURIUM, Strain/Indicator: TA98, Metabolic Activation: NONE, Method: STANDARD PLATE
  mutagenic call: active; positive
Test System: AMES SALMONELLA TYPHIMURIUM, Strain/Indicator: TA98, Metabolic Activation: RAT, LIVER, S-9, AROCLOR 1254, Method: STANDARD PLATE
  mutagenic call: active; positive
Test System: AMES SALMONELLA TYPHIMURIUM, Strain/Indicator: TA1538(NR), Metabolic Activation: NONE, Method: STANDARD PLATE
  mutagenic call: inactive; negative
Test System: AMES SALMONELLA TYPHIMURIUM, Strain/Indicator: TA1538(NR), Metabolic Activation: RAT, LIVER, S-9, AROCLOR 1254, Method: STANDARD PLATE
  mutagenic call: inactive; negative
Test System: AMES SALMONELLA TYPHIMURIUM, Strain/Indicator: TA1538, Metabolic Activation: NONE, Method: STANDARD PLATE
  mutagenic call: active; positive
Test System: AMES SALMONELLA TYPHIMURIUM, Strain/Indicator: TA1538, Metabolic Activation: RAT, LIVER, S-9, AROCLOR 1254, Method: STANDARD PLATE
  mutagenic call: active; positive

## O=S(=O)(O)Oc1ccc2ccc3cc4ccccc4c4ccc1c2c34
[1]
  mutagenic call: active; positive
Test System: AMES SALMONELLA TYPHIMURIUM, Strain/Indicator: TA98, Metabolic Activation: RAT, LIVER, S-9, AROCLOR 1254, Method: PREINCUBATION
  mutagenic call: active; positive
Test System: AMES SALMONELLA TYPHIMURIUM, Strain/Indicator: TA98, Metabolic Activation: RAT, LUNG, S-9, Method: PREINCUBATION
  mutagenic call: active; positive
